Source: ChEMBL document CHEMBL5046293 (J Med Chem, 2022)

What was measured:
[1] = Stability of compound in 0.01 M PBS buffer at 50 uM measured after 4 hrs by LC-MS analysis (reference value: 99.2 %); assay type: physicochemical; conditions: read-out: Stability
[2] = Cytotoxicity against human BLEC monolayers at 50 uM incubated for 1 hr; assay type: toxicity, cell-based; conditions: brain-like endothelial cells
[3] = Stability of compound in 0.01 M PBS buffer at 50 uM measured after 52 hrs by LC-MS analysis (reference value: 99.2 %); assay type: physicochemical; conditions: read-out: Stability
[4] = Stability of compound in 0.01 M PBS buffer at 50 uM measured after 4 hrs by LC-MS analysis (reference value: 98.7 %); assay type: physicochemical; conditions: read-out: Stability
[5] = Stability of compound in 0.01 M PBS buffer at 50 uM measured after 52 hrs by LC-MS analysis (reference value: 98.7 %); assay type: physicochemical; conditions: read-out: Stability

SMILES | Activity [2] | also measured
OC[C@H]1O[C@@H](OCCCCc2cn(CCCc3ccc(O)c(/C=N/O)n3)nn2)[C@H](O)[C@@H](O)[C@@H]1O | Non-Toxic | remaining at 4 h, 50 µM [1]: 96.7%; remaining at 52 h, 50 µM [3]: 90.9%
C#CCCCCO[C@@H]1O[C@H](CO)[C@@H](O)[C@H](O)[C@H]1O | Non-Toxic | 
OC[C@H]1O[C@@H](OCCCCCc2ccc(O)c(/C=N/O)n2)[C@H](O)[C@@H]1O | Non-Toxic | 
C#CCCCCO[C@@H]1O[C@H](CO)[C@@H](O)[C@H]1O | Non-Toxic | 
OC[C@H]1O[C@H](OCCCCc2cn(CCCCc3ccc(O)c(/C=N/O)n3)nn2)[C@H](O)[C@@H](O)[C@@H]1O | Non-Toxic | 
OC[C@H]1O[C@@H](OCCCCc2cn(CCCCc3ccc(O)c(/C=N/O)n3)nn2)[C@H](O)[C@@H]1O | Non-Toxic | 
OC[C@H]1O[C@@H](OCCCCc2ccc(O)c(/C=N/O)n2)[C@H](O)[C@@H](O)[C@@H]1O | Non-Toxic | 
Cn1cc(CCCCO[C@H]2O[C@H](CO)[C@@H](O)[C@H](O)[C@H]2O)nn1 | Non-Toxic | 
OC[C@H]1O[C@@H](OCCCc2ccc(O)c(/C=N/O)n2)[C@H](O)[C@@H](O)[C@@H]1O | Non-Toxic | remaining at 4 h, 50 µM [4]: 97.8%; remaining at 52 h, 50 µM [5]: 91.4%
Cn1cc(CCCCOC[C@H]2O[C@@H](O)[C@H](O)[C@@H](O)[C@@H]2O)nn1 | Non-Toxic | 
Cn1cc(CCCCO[C@@H]2O[C@H](CO)[C@@H](O)[C@H](O)[C@H]2O)nn1 | Non-Toxic | 
C#CCCO[C@@H]1O[C@H](CO)[C@@H](O)[C@H](O)[C@H]1O | Non-Toxic | 
OC[C@H]1O[C@@H](OCCCCc2cn(CCCCc3ccc(O)c(/C=N/O)n3)nn2)[C@H](O)[C@@H](O)[C@@H]1O | Non-Toxic | 
Cn1cc(CCCCO[C@@H]2O[C@H](CO)[C@@H](O)[C@H]2O)nn1 | Non-Toxic | 
Cn1cc(CCO[C@@H]2O[C@H](CO)[C@@H](O)[C@H](O)[C@H]2O)nn1 | Non-Toxic | 
C#CCCCCO[C@H]1O[C@H](CO)[C@@H](O)[C@H]1O | Non-Toxic | 
